Data as given in patent publication US8765944B2, “Compounds for the treatment of hepatitis C” (priority 2010, dated 2014).

System: HCV pseudoparticles
Experiment: HCV pseudoparticle infection assay (luciferase reporter, Huh7 cells)
Type: cell-based, HCV (genotype 1b E1 and E2 envelope)
Settings: Hepatitis C virus, genotype 1b, Huh-7, 48 h, HCV pseudoparticles (genotype 1b), luciferase activity 2 days after infection

Row | Structure (SMILES) | EC50 (class) [nM] | EC50 [nM]
1 | C[C@H](NC(=O)CCCNC(=O)c1ccc(Nc2nc(NC3(c4ccc(Cl)cc4)CC3)nc(OCC(F)(F)F)n2)cc1)C(=O)NS(C)(=O)=O [Example 2054] | 0.5 to 100 | 
2 | CC(C)(CNC(=O)c1ccc(Nc2nc(NC3(c4ccc(Cl)cc4)CC3)nc(OCC(F)(F)F)n2)cc1)C(=O)N[C@]1(C(=O)NS(=O)(=O)C2CC2)C[C@H]1C1CC1 [Example 2081] | 0.5 to 100 | 
3 | CN(C)CC1(S(=O)(=O)NC(=O)c2ccc(Nc3nc(OCC(F)(F)F)nc(N4CCN(S(=O)(=O)c5ccccc5Cl)CC4)n3)cc2)CC1 [Example 8033] | 1000 to 5000 | 36100
4 | CN1CCN(CC2(S(=O)(=O)NC(=O)c3ccc(Nc4nc(NC5(c6ccc(Cl)cc6)CC5)nc(OCC(F)(F)F)n4)cc3)CC2)CC1 [Example 1020] | 0.5 to 100 | 
5 | O=C(NS(=O)(=O)C1(Cc2ccccc2)CC1)c1ccc(Nc2nc(NC3(c4ccc(Cl)cc4)CC3)nc(OCC(F)(F)F)n2)cc1 [Example 8014] | 0.5 to 100 | 12.7
6 | CC(C)C(=O)NCCS(=O)(=O)NC(=O)c1ccc(Nc2nc(NC3(c4ccc(Cl)cc4)CC3)nc(OCC(F)(F)F)n2)cc1 [Example 1038] | 0.5 to 100 | 
7 | CN(C)S(=O)(=O)NC(=O)CCNC(=O)c1ccc(Nc2nc(NC3(c4ccc(Cl)cc4)CC3)nc(OCC(F)(F)F)n2)cc1 [Example 2022] | 0.5 to 100 | 
8 | CN(C)CC1(S(=O)(=O)NC(=O)c2ccc(Nc3nc(OCC(F)(F)F)nc(N4CCN(S(=O)(=O)c5cccc(F)c5)CC4)n3)cc2)CC1 [Example 8036] | 1000 to 5000 | 
9 | CN(C)S(=O)(=O)NC(=O)CCCNC(=O)c1ccc(Nc2nc(NC3(c4ccc(Cl)cc4)CC3)nc(OCC(F)(F)F)n2)cc1 [Example 2025] | 0.5 to 100 | 
10 | CC(C)(C)COC(=O)NCCS(=O)(=O)NC(=O)c1ccc(Nc2nc(NC3(c4ccc(Cl)cc4)CC3)nc(OCC(F)(F)F)n2)cc1 [Example 1046] | 0.5 to 100 | 
11 | COCCS(=O)(=O)NC(=O)C(C)(C)CNC(=O)c1ccc(Nc2nc(NC3(c4ccc(Cl)cc4)CC3)nc(OCC(F)(F)F)n2)cc1 [Example 2094] | 0.5 to 100 | 
12 | O=C(NCCS(=O)(=O)NC(=O)c1ccc(Nc2nc(NC3(c4ccc(Cl)cc4)CC3)nc(OCC(F)(F)F)n2)cc1)c1ccccc1 [Example 1037] | 0.5 to 100 | 
13 | O=C(CCCNC(=O)c1ccc(Nc2nc(NC3(c4ccc(Cl)cc4)CC3)nc(OCC(F)(F)F)n2)cc1)N[C@]1(C(=O)NS(=O)(=O)C2CC2)C[C@H]1C1CC1(F)F (some centres unmarked) [Example 2037] | 0.5 to 100 | 
14 | CC(C)S(=O)(=O)N1CCN(c2nc(Nc3ccc(C(=O)NS(=O)(=O)C4(CN(C)C)CC4)cc3)nc(OCC(F)(F)F)n2)CC1 [Example 8026] | 1000 to 5000 | 
15 | CCS(=O)(=O)N1CCN(c2nc(Nc3ccc(C(=O)NS(=O)(=O)C4(CN(C)C)CC4)cc3)nc(OCC(F)(F)F)n2)CC1 [Example 8023] | 1000 to 5000 | 
16 | O=C(NS(=O)(=O)c1ccc(Nc2nc(NC3(c4ccc(Cl)cc4)CC3)nc(OCC(F)(F)F)n2)cc1)C1CC1 [Example 8006] | 1000 to 5000 | 2990
17 | O=C(NS(=O)(=O)C1CC1)c1ccc(Nc2nc(NC3(c4ccc(Cl)cc4)CC3)nc(OCC(F)(F)F)n2)cc1 [Example 1001] | 0.5 to 100 | 
18 | CC(C)S(=O)(=O)NC(=O)C(C)(C)CNC(=O)c1ccc(Nc2nc(NC3(c4ccc(Cl)cc4)CC3)nc(OCC(F)(F)F)n2)cc1 [Example 2088] | 0.5 to 100 | 
19 | O=C(NS(=O)(=O)C1(CN2CCC2)CC1)c1ccc(Nc2nc(NC3(c4ccc(Cl)cc4)CC3)nc(OCC(F)(F)F)n2)cc1 [Example 1013] | 0.5 to 100 | 
20 | O=C(NS(=O)(=O)CCNC(=O)C1CC1)c1ccc(Nc2nc(NC3(c4ccc(Cl)cc4)CC3)nc(OCC(F)(F)F)n2)cc1 [Example 1039] | 0.5 to 100 | 
21 | NC(=O)c1ccc(Nc2nc(N[C@]3(C(=O)NS(=O)(=O)C4CC4)C[C@H]3C3CC3)nc(OCC(F)(F)F)n2)cc1 [Example 8001] | 1000 to 5000 | 
22 | CN(C)S(=O)(=O)NC(=O)c1ccc(Nc2nc(NC3(c4ccc(Cl)cc4)CC3)nc(OCC(F)(F)F)n2)cc1 [Example 1006] | 0.5 to 100 | 39
23 | O=C(NS(=O)(=O)C1(CN2CCOCC2)CC1)c1ccc(Nc2nc(NC3(c4ccc(Cl)cc4)CC3)nc(OCC(F)(F)F)n2)cc1 [Example 1015] | 0.5 to 100 | 
24 | CS(=O)(=O)NC(=O)CCCCNC(=O)c1ccc(Nc2nc(NC3(c4ccc(Cl)cc4)CC3)nc(OCC(F)(F)F)n2)cc1 [Example 2011] | 0.5 to 100 | 
25 | C=C[C@@H]1C[C@]1(NC(=O)CCCCNC(=O)c1ccc(Nc2nc(NC3(c4ccc(Cl)cc4)CC3)nc(OCC(F)(F)F)n2)cc1)C(=O)NS(=O)(=O)C1CCC1 [Example 2026] | 0.5 to 100 | 
26 | CC(C)OC(=O)NCCS(=O)(=O)NC(=O)c1ccc(Nc2nc(NC3(c4ccc(Cl)cc4)CC3)nc(OCC(F)(F)F)n2)cc1 [Example 1045] | 0.5 to 100 | 
27 | CC(=O)NS(=O)(=O)CCNC(=O)c1ccc(Nc2nc(NC3(c4ccc(Cl)cc4)CC3)nc(OCC(F)(F)F)n2)cc1 [Example 4000] | 0.5 to 100 | 

Row | Structure (SMILES) | EC50 (class) [nM] | EC50 [nM]
28 | CS(=O)(=O)NC(=O)[C@@]1(NC(=O)CCCNC(=O)c2ccc(Nc3nc(NC4(c5ccc(Cl)cc5)CC4)nc(OCC(F)(F)F)n3)cc2)C[C@H]1C1CC1 [Example 2039, 4-(4-(1-(4-chlorophenyl)cyclopropylamino)-6-(2,2,2-trifluoroethoxy)-1,3,5-triazin-2-ylamino)-N-(4-((1S,2R)-2-(methylsulfonylcarbamoyl)bi(cyclopropan)-2-ylamino)-4-oxobutyl)benzamide] | 0.5 to 100 | 
29 | O=C(CCCNC(=O)c1ccc(Nc2nc(NC3(c4ccc(Cl)cc4)CC3)nc(OCC(F)(F)F)n2)cc1)N[C@]1(C(=O)NS(=O)(=O)C2CC2)C[C@H]1C(F)F [Example 2038] | 0.5 to 100 | 
30 | O=C(CCCNC(=O)c1ccc(Nc2nc(NC3(c4ccc(Cl)cc4)CC3)nc(OCC(F)(F)F)n2)cc1)N[C@]1(C(=O)NS(=O)(=O)C2CC2)C[C@H]1C1CC1 [Example 2036] | 0.5 to 100 | 
31 | CCC1(S(=O)(=O)NC(=O)C(C)(C)CNC(=O)c2ccc(Nc3nc(NC4(c5ccc(Cl)cc5)CC4)nc(OCC(F)(F)F)n3)cc2)CC1 [Example 2091] | 0.5 to 100 | 
32 | CC(C)NC(=O)NCCS(=O)(=O)NC(=O)c1ccc(Nc2nc(NC3(c4ccc(Cl)cc4)CC3)nc(OCC(F)(F)F)n2)cc1 [Example 1048] | 0.5 to 100 | 
33 | CN(C)CC1(S(=O)(=O)NC(=O)c2ccc(Nc3nc(OCC(F)(F)F)nc(N4CCN(S(=O)(=O)c5ccccc5F)CC4)n3)cc2)CC1 [Example 8030] | 1000 to 5000 | 
34 | C=C[C@@H]1C[C@]1(NC(=O)CCCCNC(=O)c1ccc(Nc2nc(NC3(c4ccc(Cl)cc4)CC3)nc(OCC(F)(F)F)n2)cc1)C(=O)NS(=O)(=O)C1CC1 [Example 2031] | 0.5 to 100 | 
35 | CN(C)CC1(C(=O)NS(=O)(=O)c2ccc(Nc3nc(NC4(c5ccc(Cl)cc5)CC4)nc(OCC(F)(F)F)n3)cc2)CC1 [Example 3006] | 1000 to 5000 | 2700
36 | CCC(=O)NS(=O)(=O)c1ccc(Nc2nc(NC3(c4ccc(Cl)cc4)CC3)nc(OCC(F)(F)F)n2)cc1 [Example 8004] | 1000 to 5000 | 2980
37 | CN(C)S(=O)(=O)NC(=O)C(C)(C)CNC(=O)c1ccc(Nc2nc(NC3(c4ccc(Cl)cc4)CC3)nc(OCC(F)(F)F)n2)cc1 [Example 2093] | 0.5 to 100 | 
38 | O=C(NCC1(CN2CCCC2)CC1)c1ccc(Nc2nc(NC3(c4ccc(C(=O)NS(=O)(=O)C5CCC5)cc4)CC3)nc(OCC(F)(F)F)n2)cc1 [Example 7002] | 0.5 to 100 | 
39 | CC(C)(C)OC(=O)NC[C@H](NC(=O)c1ccc(Nc2nc(NC3(c4ccc(Cl)cc4)CC3)nc(OCC(F)(F)F)n2)cc1)C(=O)NS(=O)(=O)C1CC1 [Example 2096] | 0.5 to 100 | 
40 | O=C(NCCS(=O)(=O)NC(=O)c1ccc(Nc2nc(NC3(c4ccc(Cl)cc4)CC3)nc(OCC(F)(F)F)n2)cc1)Nc1cccnc1 [Example 1050] | 0.5 to 100 | 
41 | O=C(NCC1(C(=O)NS(=O)(=O)C2CC2)CC1)c1ccc(Nc2nc(NC3(c4ccc(Cl)cc4)CC3)nc(OCC(F)(F)F)n2)cc1 [Example 2070] | 0.5 to 100 | 
42 | CCCC1(S(=O)(=O)NC(=O)C(C)(C)CNC(=O)c2ccc(Nc3nc(NC4(c5ccc(Cl)cc5)CC4)nc(OCC(F)(F)F)n3)cc2)CC1 [Example 2092] | 0.5 to 100 | 
43 | CCN(CC)CC1(S(=O)(=O)NC(=O)c2ccc(Nc3nc(NC4(c5ccc(Cl)cc5)CC4)nc(OCC(F)(F)F)n3)cc2)CC1 [Example 1014] | 0.5 to 100 | 
44 | CS(=O)(=O)NC(=O)c1ccc(Nc2nc(NC3(c4ccc(Cl)cc4)CC3)nc(OCC(F)(F)F)n2)cc1 [Example 1002] | 0.5 to 100 | 
45 | O=C(CCCNC(=O)c1ccc(Nc2nc(NC3(c4ccc(Cl)cc4)CC3)nc(OCC(F)(F)F)n2)cc1)NCCC(=O)N[C@]1(C(=O)NS(=O)(=O)C2CC2)C[C@H]1C1CC1 [Example 2064] | 0.5 to 100 | 
46 | C=CS(=O)(=O)NC(=O)[C@@]1(NC(=O)CCCNC(=O)c2ccc(Nc3nc(NC4(c5ccc(Cl)cc5)CC4)nc(OCC(F)(F)F)n3)cc2)C[C@H]1C1CC1 [Example 2040] | 0.5 to 100 | 
47 | CC(C)N(C(=O)C1(CNC(=O)c2ccc(Nc3nc(NC4(c5ccc(Cl)cc5)CC4)nc(OCC(F)(F)F)n3)cc2)CC1)S(N)(=O)=O [Example 2079] | 0.5 to 100 | 
48 | CC(C)(CNC(=O)c1ccc(Nc2nc(NC3(c4ccc(Cl)cc4)CC3)nc(OCC(F)(F)F)n2)cc1)C(=O)NS(C)(=O)=O [Example 2085] | 0.5 to 100 | 
49 | C=CS(=O)(=O)NC(=O)C(C)(C)CNC(=O)c1ccc(Nc2nc(NC3(c4ccc(Cl)cc4)CC3)nc(OCC(F)(F)F)n2)cc1 [Example 2086] | 0.5 to 100 | 
50 | Cc1cccc(S(=O)(=O)N2CCN(c3nc(Nc4ccc(C(=O)NS(=O)(=O)C5(CN(C)C)CC5)cc4)nc(OCC(F)(F)F)n3)CC2)c1 [Example 8032] | 1000 to 5000 | 
51 | O=C(NS(=O)(=O)c1ccc(Nc2nc(NC3(c4ccc(Cl)cc4)CC3)nc(OCC(F)(F)F)n2)cc1)c1ccccc1 [Example 8005] | 1000 to 5000 | 
52 | O=C(CCCNC(=O)c1ccc(Nc2nc(NC3(c4ccc(Cl)cc4)CC3)nc(OCC(F)(F)F)n2)cc1)N[C@]1(C(=O)NS(=O)(=O)C2(F)CC2)C[C@H]1C1CC1 [Example 2044] | 0.5 to 100 | 
53 | COc1ccc(C(=O)N2CCN(c3nc(Nc4ccc(C(=O)NS(=O)(=O)C5(CN(C)C)CC5)cc4)nc(OCC(F)(F)F)n3)CC2)cc1 [Example 8041] | 1000 to 5000 | 
